According to ChEMBL document CHEMBL1137396, “Discovery of (1R,5S)-N-[3-amino-1-(cyclobutylmethyl)-2,3-dioxopropyl]- 3-[2(S)-[[[(1,1-dimethylethyl)amino]carbonyl]amino]-3,3-dimethyl-1-oxobutyl]- 6,6-dimethyl-3-azabicyclo[3.1.0]hexan-2(S)-carboxamide (SCH 503034), a selective, potent, orally bioavailable hepatitis C virus NS3 protease …” (J Med Chem, 2006):

Columns and labels:
NS3 = NS3 (Hepatitis C virus, UniProt A3EZJ3); test: Binding affinity at HCV NS3 protease; parameters: species or system Hepatitis C virus subtype 1b
Chain of NS3 (A3EZJ3 whole entry): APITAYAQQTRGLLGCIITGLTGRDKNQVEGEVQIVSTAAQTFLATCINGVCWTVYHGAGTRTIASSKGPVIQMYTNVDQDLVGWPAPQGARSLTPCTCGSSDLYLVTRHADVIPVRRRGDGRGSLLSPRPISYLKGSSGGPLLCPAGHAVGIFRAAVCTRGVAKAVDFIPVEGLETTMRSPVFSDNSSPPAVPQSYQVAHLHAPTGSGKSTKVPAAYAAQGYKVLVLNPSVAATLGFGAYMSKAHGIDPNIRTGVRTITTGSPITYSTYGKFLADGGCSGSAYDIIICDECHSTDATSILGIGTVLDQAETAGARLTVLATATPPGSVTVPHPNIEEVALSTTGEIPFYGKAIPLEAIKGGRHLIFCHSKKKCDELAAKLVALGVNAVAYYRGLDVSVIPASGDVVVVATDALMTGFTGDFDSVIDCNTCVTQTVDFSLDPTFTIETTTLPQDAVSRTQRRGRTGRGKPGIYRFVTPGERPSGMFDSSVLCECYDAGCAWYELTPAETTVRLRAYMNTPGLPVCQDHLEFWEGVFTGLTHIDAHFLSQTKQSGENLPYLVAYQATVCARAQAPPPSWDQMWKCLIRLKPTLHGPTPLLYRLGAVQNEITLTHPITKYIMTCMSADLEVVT

[1] = Selectivity for human neutrophil elastase (HNE) over HCV NS3 protease
Hepatocyte = test: Inhibition of HCV replication in hepatocytes measured by cellular replicon assay; format: functional; settings: Hepatitis C virus
Huh-5-2 = test: Cytotoxicity against hepatoma cell line containing HCV replicon measured as change in GAPDH RNA level; format: functional, Homo sapiens

Structure (SMILES)	Ki (NS3) [µM]	Selectivity ratio [1]	EC90 (Hepatocyte) [µM]	Activity (Huh-5-2) [µM]
CC(C)(C)NC(=O)N[C@H](C(=O)N1C[C@H]2[C@@H]([C@H]1C(=O)NC(CC1CCC1)C(=O)C(N)=O)C2(C)C)C1CCCCC1 (some centres undefined)	0.05	90		
CC(C)(C)OC(=O)N[C@H](C(=O)N1C[C@H]2[C@@H]([C@H]1C(=O)NC1(C(=O)C(N)=O)CC1)C2(C)C)C1CCCCC1	> 14			
CC(C)(C)OC(=O)N[C@H](C(=O)N1C[C@H]2[C@@H]([C@H]1C(=O)NC(CC1CC1)C(=O)C(N)=O)C2(C)C)C1CCCC1 (some centres undefined)	0.1	11		
CC(C)(C)OC(=O)N[C@H](C(=O)N1C[C@H]2[C@@H]([C@H]1C(=O)NC(CC1CC1)C(=O)C(N)=O)C2(C)C)C(C)(C)C (some centres undefined)			0.6	>5
CCCC(NC(=O)[C@@H]1[C@@H]2[C@H](CN1C(=O)[C@@H](NC(=O)OC(C)(C)C)C1CCCCC1)C2(C)C)C(=O)C(=O)NCC(=O)N[C@H](C)c1ccccc1 (some centres undefined)	0.055			
CC(C)(C)OC(=O)N[C@H](C(=O)N1C[C@H]2[C@@H]([C@H]1C(=O)NC(CC1CCC1)C(=O)C(N)=O)C2(C)C)C(C)(C)C (some centres undefined)	0.076	684	0.8	>5
CC(C)NC(=O)N[C@H](C(=O)N1C[C@H]2[C@@H]([C@H]1C(=O)NC(CC1CC1)C(=O)C(N)=O)C2(C)C)C(C)(C)C (some centres undefined)	0.14	160		
CC(C)[C@H](NC(=O)OC(C)(C)C)C(=O)N1C[C@H]2[C@@H]([C@H]1C(=O)NC(CC1CC1)C(=O)C(N)=O)C2(C)C (some centres undefined)	0.21	19		
CC(C)OC(=O)N[C@H](C(=O)N1C[C@H]2[C@@H]([C@H]1C(=O)NC(CC1CC1)C(=O)C(N)=O)C2(C)C)C(C)(C)C (some centres undefined)	0.15	100		
CC(C)CC(NC(=O)[C@@H]1[C@@H]2[C@H](CN1C(=O)[C@@H](NC(=O)OC(C)(C)C)C1CCCCC1)C2(C)C)C(=O)C(N)=O (some centres undefined)	0.4	9		
CC(C)(C)[C@H](NC(=O)OC1CC1)C(=O)N1C[C@H]2[C@@H]([C@H]1C(=O)NC(CC1CC1)C(=O)C(N)=O)C2(C)C (some centres undefined)	0.3			
CC(C)(C)OC(=O)N[C@H](C(=O)N1C[C@H]2[C@@H]([C@H]1C(=O)NC(CC1CCC1)C(=O)C(N)=O)C2(C)C)C1(C)CC1 (some centres undefined)	0.7			
CC(C)(C)OC(=O)N[C@H](C(=O)N1C[C@H]2[C@@H]([C@H]1C(=O)NC(CC1CC1)C(=O)C(N)=O)C2(C)C)C1(C)CC1 (some centres undefined)	0.3			
CCCC(NC(=O)[C@@H]1[C@@H]2[C@H](CN1C(=O)[C@@H](NC(=O)OC(C)(C)C)C1CCCCC1)C2(C)C)C(=O)C(=O)NCC(=O)OC(C)(C)c1ccccc1 (some centres undefined)	0.05			
C=CCCC(NC(=O)[C@@H]1[C@@H]2[C@H](CN1C(=O)[C@@H](NC(=O)OC(C)(C)C)C1CCCCC1)C2(C)C)C(=O)C(N)=O (some centres undefined)	0.15	2		
CN(C(=O)N[C@H](C(=O)N1C[C@H]2[C@@H]([C@H]1C(=O)NC(CC1CC1)C(=O)C(N)=O)C2(C)C)C(C)(C)C)C(C)(C)C (some centres undefined)	0.06	45	> 1	>5
CCCCNC(=O)C(=O)C(CCC)NC(=O)[C@@H]1[C@@H]2[C@H](CN1C(=O)[C@@H](NC(=O)OC(C)(C)C)C1CCCCC1)C2(C)C (some centres undefined)	1.9			
CC(C)(C)OC(=O)N[C@H](C(=O)N1C[C@H]2[C@@H](C1C(=O)NC(CC(F)(F)F)C(=O)C(N)=O)C2(C)C)C1CCCCC1 (some centres undefined)	0.05	2	0.7	>5
CCC(NC(=O)[C@@H]1[C@@H]2[C@H](CN1C(=O)[C@@H](NC(=O)OC(C)(C)C)C1CCCCC1)C2(C)C)C(=O)C(N)=O (some centres undefined)	0.74			
CN(C(=O)N[C@H](C(=O)N1C[C@H]2[C@@H]([C@H]1C(=O)NC(CC1CCC1)C(=O)C(N)=O)C2(C)C)C(C)(C)C)C(C)(C)C (some centres undefined)	0.1	270		
C=C(C)CC(NC(=O)[C@@H]1[C@@H]2[C@H](CN1C(=O)[C@@H](NC(=O)OC(C)(C)C)C1CCCCC1)C2(C)C)C(=O)C(N)=O (some centres undefined)	0.3	2		
CCCC(NC(=O)[C@@H]1[C@@H]2[C@H](CN1C(=O)[C@@H](NC(=O)OC(C)(C)C)C1CCCCC1)C2(C)C)C(=O)C(=O)N(C)C (some centres undefined)	> 13			
CC(C)(C)OC(=O)N[C@H](C(=O)N1C[C@H]2[C@@H]([C@H]1C(=O)NC(CC1CCC1)C(=O)C(N)=O)C2(C)C)C(C)(C)O (some centres undefined)	0.22	55		
CC(C)(C)OC(=O)N[C@H](C(=O)N1C[C@H]2[C@@H]([C@H]1C(=O)NC(CC1CCCC1)C(=O)C(N)=O)C2(C)C)C1CCCCC1 (some centres undefined)	0.15	370		

Further lines, with some results ahead:

Ki (NS3) [µM]	Selectivity ratio [1]	Structure (SMILES)	EC90 (Hepatocyte) [µM]	Activity (Huh-5-2) [µM]
> 12		CC(C)(C)OC(=O)N[C@H](C(=O)N1C[C@H]2[C@@H]([C@H]1C(=O)NC(CC1CCCCC1)C(=O)C(N)=O)C2(C)C)C1CCCCC1 (some centres undefined)		
0.092		CCCC(NC(=O)[C@@H]1[C@@H]2[C@H](CN1C(=O)[C@@H](NC(=O)OC(C)(C)C)C1CCCCC1)C2(C)C)C(=O)C(=O)NCC(=O)N[C@@H](C)C1CCCCC1 (some centres undefined)		
0.11		CCCC(NC(=O)[C@@H]1[C@@H]2[C@H](CN1C(=O)[C@@H](NC(=O)OC(C)(C)C)C1CCCCC1)C2(C)C)C(=O)C(=O)O (some centres undefined)		
0.05	38	CC(C)(C)NC(=O)N[C@H](C(=O)N1C[C@H]2[C@@H]([C@H]1C(=O)NC(CC1CC1)C(=O)C(N)=O)C2(C)C)C1CCCCC1 (some centres undefined)		
0.13		CCCC(NC(=O)[C@@H]1[C@@H]2[C@H](CN1C(=O)[C@@H](NC(=O)OC(C)(C)C)C1CCCCC1)C2(C)C)C(=O)C(=O)NCC(=O)NCC1CC1 (some centres undefined)		
0.79		CCCC(NC(=O)[C@@H]1[C@@H]2[C@H](CN1C(=O)[C@@H](NC(=O)OC(C)(C)C)C1CCCCC1)C2(C)C)C(=O)C(=O)NCC(N)=O (some centres undefined)		
0.036	3800	CC(C)[C@H](C)OC(=O)N[C@H](C(=O)N1C[C@H]2[C@@H]([C@H]1C(=O)NC(CC1CCC1)C(=O)C(N)=O)C2(C)C)C(C)(C)C (some centres undefined)	0.7	>5
0.27		CC(C)(C)OC(=O)N[C@H](C(=O)N1C[C@H]2[C@@H]([C@H]1C(=O)NC(CC1CCC1)C(=O)C(N)=O)C2(C)C)C1Cc2ccccc2C1 (some centres undefined)	2	>5
0.035	380	C[C@@H](NC(=O)N[C@H](C(=O)N1C[C@H]2[C@@H]([C@H]1C(=O)NC(CC1CCC1)C(=O)C(N)=O)C2(C)C)C(C)(C)C)C(C)(C)C (some centres undefined)	0.4	>5
0.09	140	CC(C)(C)OC(=O)N[C@H](C(=O)N1C[C@H]2[C@@H](C1C(=O)NC(CC1CCO1)C(=O)C(N)=O)C2(C)C)C1CCCCC1 (some centres undefined)		
0.07	160	CC(C)COC(=O)N[C@H](C(=O)N1C[C@H]2[C@@H]([C@H]1C(=O)NC(CC1CC1)C(=O)C(N)=O)C2(C)C)C(C)(C)C (some centres undefined)		
0.4		CC(C)(C)OC(=O)N[C@H](C(=O)N1C[C@H]2[C@@H]([C@H]1C(=O)NC(CC1COC1)C(=O)C(N)=O)C2(C)C)C1CCCCC1 (some centres undefined)	> 1	>5
0.08	100	CC1(NC(=O)N[C@H](C(=O)N2C[C@H]3[C@@H]([C@H]2C(=O)NC(CC2CC2)C(=O)C(N)=O)C3(C)C)C(C)(C)C)CC1 (some centres undefined)	0.9	>5
